# Assay results taken from publication PMC11096368, “Transcriptomic signature, bioactivity and safety of a non-hepatotoxic analgesic generating AM404 in the midbrain PAG region” (Scientific Reports, 2024).
# “Also recorded” adds a separate entry of the source.
# Experiments:
# [1] = system: Rat liver and stomach cells; assay: In vivo mammalian alkaline comet assay; design: species or system rats
# Experimental: Male Sprague–Dawley rats were orally administered SRP-001 at 500, 1000, or 2000 mg/kg/dose for two consecutive days at a dose volume of 10 mL/kg/dose (Bioreliance, Rockville, MD USA). The vehicle control was 10% Labrasol, 10% DMSO, and 80% PEG400. The positive control for the Comet assay, ethyl methanesulfonate (EMS), was orally administered at 200 mg/kg/dose for two consecutive days at a dose volume of 10 mL/kg/dose. […] Animals were euthanized 3–4 h after the last dose administration. The liver and glandular stomach were collected and processed for comet evaluation.
# The group mean % tail DNA for the vehicle control was within the 95% control limit of the study historical data range, with one animal (#160) exceeding the individual animal 95% control limit but within the minimum/maximum range. Additionally, three animals (#173, 174, and 175) in the mid-dose (1000 mg/kg/dose) group likewise exceeded the individual animal 95% control limit but were within the minimum/maximum range.
# The group mean % tail DNA for the vehicle control was within the 95% control limit of the study historical data range, with one animal (#158) exceeding both the individual animal 95% control limit and minimum/maximum ranges. One animal (#171) in the mid-dose (1000 mg/kg/dose) group and one animal (#180) in the high-dose (2000 mg/kg/dose) group exceeded just the 95% control limit range but were within the minimum/maximum range. One animal (#170) in the mid-dose (1000 mg/kg/dose) group and one animal (#179) in the high-dose (2000 mg/kg/dose) group exceeded both the individual animal 95% control limit and minimum/maximum ranges.
# [2] = 28-day oral toxicity study with 14-day recovery (GLP); format: in vivo, rats; conditions: both sexes, Sprague-Dawley, rat, in vivo, oral; once daily for 28 days; read-out: No-adverse effect level (NOAEL)
# Description: (§1) We next set out to determine the toxicity and toxicokinetics of SRP-001 when administered via oral gavage once daily to Sprague–Dawley Rats for 28 d (Calvert Labs/Altasciences, Scott Township, PA USA). The study also assessed the reversibility of any toxicity observed with a 14-d recovery period. One hundred thirty-six experimentally naïve Sprague–Dawley rats (68 males and 68 females), 8 weeks old and weighing 167–295 g for males and females at the outset of the study, were assigned to toxicology treatment groups (Groups 1–4) or toxicokinetic groups (Groups 5–7). For toxicology groups, 10 animals/sex/dose were administered 0, 300, 900, or 1500 mg/kg/d SRP-001. An additional 5 animals/sex/dose in Groups 1 and 4 were targeted for a 14-d recovery period and euthanized on day 43. For toxicokinetic groups, 6 animals/sex/dose were administered 300, 900, or 1500 mg/kg/d SRP-001. Mortality/morbidity was performed twice daily and once prior to scheduled sacrifice. Animals in Groups 1–4 were observed prior to each dose administration and 1–3 h post-dose. Animals in Groups 1–4 were also observed once daily on non-dosing days and once prior to scheduled sacrifice. Body weights were recorded prior to randomization/selection, prior to dose administration on day 1, and weekly thereafter. Food consumption was determined weekly for animals in Groups 1–4. Ophthalmology examinations were performed before treatment initiation and during the last week of dosing for animals in Groups 1–4. The functional observational battery was assessed for 5 animals/sex/group in Groups 1–4 once prior to dosing and at 1–2 h following dose administration on day 1. Blood for evaluation of hematology, coagulation, and clinical chemistry and urine for urinalysis was collected from animals in Groups 1–4 on day 29 or day 43. Blood for toxicokinetic evaluation was collected from animals in Groups 5–7 at selected timepoints on days 1 and 28. All surviving animals in Groups 1–4 were sacrificed on day 29 or day 43. Selected tissues were harvested at necropsy, selected organs weighed, and selected tissues evaluated microscopically.
# (§2) Following dosing, the reversibility of any toxicity observed was assessed with a 14-d recovery period of animals receiving 0 or 1500 mg/kg of SRP-001. SRP-001-related clinical signs included red staining around the forepaw, forelimbs, mouth, muzzle, and nose and brown-staining in the anogenital area. […] The majority of clinical signs were observed during the first 3 weeks of dosing, and by day 28, the majority of the animals appeared normal. […] These differences remained within or close to the historically normal ranges. Statistically significant differences in total protein, globulin, and mean corpuscular hemoglobin remained present in males after the recovery period, although at a smaller magnitude. SRP-001-related microscopic findings were limited to the liver and included minimal to mild centrilobular hepatocellular hypertrophy in both sexes at ≥ 300 mg/kg/d. This finding correlated with statistically significant increases in liver weights in both sexes.
# (§3) Exposure to SRP-001 following oral gavage dosing at 300, 900, and 1500 mg/kg SRP-001 was dose-dependent, increasing with escalating doses following a single dose. […] Based on the parameters observed, the no-adverse effect level (NOAEL) of SRP-001, when administered once daily for 28 d to Sprague–Dawley rats, was 1500 mg/kg.
# Sprague Dawley rats = assay: as above; format: in vivo
# Description: as §1, §2, §3
# [3] = system: FAAH, CORO2A, and RPL7L1 expression; assay: Single-cell RNA sequencing of midbrain PAG in the CFA model; format: in vivo; conditions: 100 mg/kg, 1 h, CFA rats
# Experimental: Subsequently, we endeavored to explore the single-cell transcriptome of the eVF rat mid-brain PAG region to further define the mechanisms of action (MOA) of chronic inflammatory pain and, ultimately, SRP-001- and ApAP-mediated pain modulation. Left hind paws of Sprague Dawley rats were injected with 150 µl of 50% complete Freund’s adjuvant (CFA), freshly diluted with sterile saline on the day of administration, to induce conspicuous long-standing inflammatory pain in the rats’ hind paws, along with mechanical hyperalgesia tested using eVF.to induce local inflammation and a chronic pain state. We dosed the rats with ApAP or SRP-001 (100 mg/kg), and after 1 h, they were euthanized to dissect the PAG from flash-frozen brains for 10xGenomics single-nuclei RNA library preparation (Fig. 4a).
# For cell nuclei isolation from the midbrain PAG, they were flash-frozen, dissected (by a cryotome), minced into small pieces, homogenized, filtered through 70 μ strainer and centrifuged. ReadiDrop 7-AAD cell viability dye (Bio-Rad) added, and flow sorted the live (7-AAD positive) nuclei in a BioRad Cell Sorter S3e using purity mode. Nuclei were counted using Nexcelom automated Cellometer with acridine orange/propidium iodide (AOPI) stain, and the Nuclei Stock Concentration used so that 10,000 nuclei could be targeted for each sample. […]
smiles,measurement,setting,value
"CCN(CC)C(=O)c1ccccc1S(=O)(=O)NCC(=O)Nc1ccc(O)cc1 [SRP-001, N,N-diethyl-2-[[2-(4-hydroxyanilino)-2-oxo-ethyl]sulfamoyl]benzamide]","% tail DNA, glandular stomach","[1]; 500, 1000, 2000 mg/kg/dose",No statistically significant increases
same,"% tail DNA, liver","[1]; 500, 1000, 2000 mg/kg/dose",No statistically significant increases
same,Comet assay result (DNA damage in liver and stomach),"[1]; up to 2000 mg/kg/dose, two consecutive days, oral",negative; also recorded: negative (non-DNA damaging)
same,NOAEL at 28 d,[2],1500 mg/kg
same,Exposure versus dose,"Sprague Dawley rats; 300, 900, 1500 mg/kg, single dose and 28 days",dose-dependent
same,"Body weight, food consumption, functional observation battery, ophthalmology, coagulation, urinalysis","Sprague Dawley rats; 300, 900, 1500 mg/kg/d",no SRP-001-related effects
same,Doses without treatment-related adverse effects,"Sprague Dawley rats; 28 days of daily oral doses, rats",up to 1500 mg/kg/day
same,Doses with minimal to mild centrilobular hepatocellular hypertrophy (non-adverse),"Sprague Dawley rats; both sexes, 28 d",≥ 300 mg/kg/day
same,"Expression of FAAH, CORO2A, and RPL7L1 in PAG (scRNAseq)",[3],Downregulation
